Experimental data: PubChem BioAssay AID1963958 (Molecular Pharmacology Branch, DTP, NCI, 2024)

Tested on: MDA-MB-231 multicell spheroids, viability
Assay: Anticancer human tumor MDA-MB-231 cell line growth inhibition [PI3K];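 note: spheroids exposed to agents for seven days before reading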;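 for viability, T/C: percent of vehicle control luminescence with DMSO treated spheroids as 100%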
Conditions: for IC50: curve of first compound; for viability, T/C: stronger effect = lower value
Outline: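 Tumor cells were combined with HUVEC and MSCs into spheroids, then dosed with PI3K-inhibitor combinations over half-log ranges capped near clinical Cmax or 10 microM.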

`CNC(=O)c1ccc(N2C(=S)N(c3ccc(C#N)c(C(F)(F)F)c3)C(=O)C2(C)C)cc1F` + COc1c(OCCCN2CCOCC2)ccc2c3n(c(=NC(=O)c4cnc(N)nc4)nc12)CCN3 was tested, and the IC50 (second compound 0.00316 µM) was > 10 µM, the IC50 (second compound 0.01 µM) was > 10 µM and the IC50 (second compound 0.0316 µM) was > 10 µM. The IC50 (second compound 0.1 µM) was < 0.0316 µM, the IC50 (second compound 0.316 µM) was < 0.0316 µM and the IC50 (second compound 1 µM) was < 0.0316 µM. For the same compound, the viability, T/C (second compound 0.00316 µM, first compound 0.0316 µM) was 98.3%, the viability, T/C (second compound 0.00316 µM, first compound 0.1 µM) was 96.5% and the viability, T/C (second compound 0.00316 µM, first compound 0.316 µM) was 98.9%. The viability, T/C (second compound 0.00316 µM, first compound 1 µM) was 97.6%, the viability, T/C (second compound 0.00316 µM, first compound 3.16 µM) was 95.9% and the viability, T/C (second compound 0.00316 µM, first compound 10 µM) was 81.3%. The viability, T/C (second compound 0.01 µM, first compound 0.0316 µM) was 82.2%, the viability, T/C (second compound 0.01 µM, first compound 0.1 µM) was 78.5% and the viability, T/C (second compound 0.01 µM, first compound 0.316 µM) was 82.5%. For the same compound, the viability, T/C (second compound 0.01 µM, first compound 1 µM) was 83.7%, the viability, T/C (second compound 0.01 µM, first compound 3.16 µM) was 72.7% and the viability, T/C (second compound 0.01 µM, first compound 10 µM) was 64.2%. It also gave a viability, T/C (second compound 0.0316 µM, first compound 0.0316 µM) of 63%, a viability, T/C (second compound 0.0316 µM, first compound 0.1 µM) of 64.5% and a viability, T/C (second compound 0.0316 µM, first compound 0.316 µM) of 64.8%. The viability, T/C (second compound 0.0316 µM, first compound 1 µM) was 61.7%, the viability, T/C (second compound 0.0316 µM, first compound 3.16 µM) was 59% and the viability, T/C (second compound 0.0316 µM, first compound 10 µM) was 50.9%. It also gave a viability, T/C (second compound 0.1 µM, first compound 0.0316 µM) of 50.9%, a viability, T/C (second compound 0.1 µM, first compound 0.1 µM) of 46.2% and a viability, T/C (second compound 0.1 µM, first compound 0.316 µM) of 48.9%. The viability, T/C (second compound 0.1 µM, first compound 1 µM) was 48.1%, the viability, T/C (second compound 0.1 µM, first compound 3.16 µM) was 46.9% and the viability, T/C (second compound 0.1 µM, first compound 10 µM) was 38.8%. For the same compound, the viability, T/C (second compound 0.316 µM, first compound 0.0316 µM) was 34.5%, the viability, T/C (second compound 0.316 µM, first compound 0.1 µM) was 34.4% and the viability, T/C (second compound 0.316 µM, first compound 0.316 µM) was 34.8%. For the same compound, the viability, T/C (second compound 0.316 µM, first compound 1 µM) was 34.6%, the viability, T/C (second compound 0.316 µM, first compound 3.16 µM) was 32.6% and the viability, T/C (second compound 0.316 µM, first compound 10 µM) was 28.3%. It also gave a viability, T/C (second compound 1 µM, first compound 0.0316 µM) of 25.6%, a viability, T/C (second compound 1 µM, first compound 0.1 µM) of 24.8% and a viability, T/C (second compound 1 µM, first compound 0.316 µM) of 25%. The viability, T/C (second compound 1 µM, first compound 1 µM) was 24.8%, the viability, T/C (second compound 1 µM, first compound 3.16 µM) was 25.1% and the viability, T/C (second compound 1 µM, first compound 10 µM) was 22.9%.
With `Cn1cnc2c(F)c(Nc3ccc(Br)cc3Cl)c(C(=O)NOCCO)cc21` + COc1c(OCCCN2CCOCC2)ccc2c3n(c(=NC(=O)c4cnc(N)nc4)nc12)CCN3 the IC50 (second compound 0.00316 µM) was 0.184 µM, the IC50 (second compound 0.01 µM) was 0.0407 µM and the IC50 (second compound 0.0316 µM) was < 0.00949 µM. The IC50 (second compound 0.1 µM) was < 0.00949 µM, the IC50 (second compound 0.316 µM) was < 0.00949 µM and the IC50 (second compound 1 µM) was < 0.00949 µM. The viability, T/C (second compound 0.00316 µM, first compound 0.00949 µM) was 60%, the viability, T/C (second compound 0.00316 µM, first compound 0.03 µM) was 56.6% and the viability, T/C (second compound 0.00316 µM, first compound 0.0949 µM) was 52.2%. For the same compound, the viability, T/C (second compound 0.00316 µM, first compound 0.3 µM) was 47.5%, the viability, T/C (second compound 0.00316 µM, first compound 0.949 µM) was 41.4% and the viability, T/C (second compound 0.00316 µM, first compound 3 µM) was 29.7%. The viability, T/C (second compound 0.01 µM, first compound 0.00949 µM) was 62.1%, the viability, T/C (second compound 0.01 µM, first compound 0.03 µM) was 46.6% and the viability, T/C (second compound 0.01 µM, first compound 0.0949 µM) was 42.2%. It also gave a viability, T/C (second compound 0.01 µM, first compound 0.3 µM) of 40.4%, a viability, T/C (second compound 0.01 µM, first compound 0.949 µM) of 41.7% and a viability, T/C (second compound 0.01 µM, first compound 3 µM) of 23.6%. The viability, T/C (second compound 0.0316 µM, first compound 0.00949 µM) was 45%, the viability, T/C (second compound 0.0316 µM, first compound 0.03 µM) was 43.4% and the viability, T/C (second compound 0.0316 µM, first compound 0.0949 µM) was 38.9%. For the same compound, the viability, T/C (second compound 0.0316 µM, first compound 0.3 µM) was 33.1%, the viability, T/C (second compound 0.0316 µM, first compound 0.949 µM) was 28.8% and the viability, T/C (second compound 0.0316 µM, first compound 3 µM) was 12.9%. The viability, T/C (second compound 0.1 µM, first compound 0.00949 µM) was 33.7%, the viability, T/C (second compound 0.1 µM, first compound 0.03 µM) was 30.3% and the viability, T/C (second compound 0.1 µM, first compound 0.0949 µM) was 27.3%. The viability, T/C (second compound 0.1 µM, first compound 0.3 µM) was 27.1%, the viability, T/C (second compound 0.1 µM, first compound 0.949 µM) was 21% and the viability, T/C (second compound 0.1 µM, first compound 3 µM) was 7.54%. For the same compound, the viability, T/C (second compound 0.316 µM, first compound 0.00949 µM) was 24.3%, the viability, T/C (second compound 0.316 µM, first compound 0.03 µM) was 18.7% and the viability, T/C (second compound 0.316 µM, first compound 0.0949 µM) was 15.8%. The viability, T/C (second compound 0.316 µM, first compound 0.3 µM) was 14.4%, the viability, T/C (second compound 0.316 µM, first compound 0.949 µM) was 12.2% and the viability, T/C (second compound 0.316 µM, first compound 3 µM) was 5.36%. The viability, T/C (second compound 1 µM, first compound 0.00949 µM) was 17.7%, the viability, T/C (second compound 1 µM, first compound 0.03 µM) was 14.2% and the viability, T/C (second compound 1 µM, first compound 0.0949 µM) was 12.5%. For the same compound, the viability, T/C (second compound 1 µM, first compound 0.3 µM) was 9.99%, the viability, T/C (second compound 1 µM, first compound 0.949 µM) was 8.63% and the viability, T/C (second compound 1 µM, first compound 3 µM) was 4.84%.
